Experiments:
[1] = In vivo pharmacokinetic assay in rats; parameters: species or system SD male rats
Description: SD male rats aged 7 to 10 weeks were selected. The rats were fasted for at least 12 hours before the administration, and resumed feeding 4 hours after the administration. The rats had free access to water throughout the assay period.
(§1) On the day of the assay, the animals in the intravenous group were administrated the corresponding compound through a single injection in the tail vein at an administration volume of 5 mL/kg; the oral group were administrated the corresponding compound through a single intragastric gavage at an administration volume of 10 mL/kg. The animals were weighed before administration, and the administration volume was calculated based on the body weight. The time for collecting samples was: 0.083 (the injection group), 0.25, 0.5, 1, 2, 4, 6, 8, 24 h. About 200 μL of whole blood was collected from the jugular vein at each time point to prepare plasma for concentration determination by high-performance liquid chromatography-tandem mass spectrometry (LC-MS/MS). All animals were euthanized by CO2 anesthesia after collecting the PK samples at the last time point. The plasma concentrations were processed by non-compartmental model of WinNonlin™ Version 6.3 (Pharsight, Mountain View, Calif.) pharmacokinetic software, and the pharmacokinetic parameters were calculated by the linear logarithm trapezoidal method.

[2] = system: MV-4-11 cells; test: Assay of inhibiting proliferation of MV-4-11 in vitro (CellTiter-Glo, 3 days); type: cell-based, human; settings: MV-4-11 cell proliferation
Description: IMDM medium, fetal bovine serum, and penicillin/streptomycin antibiotics were purchased from Promega (Madison, Wis.). The MV-4-11 cell line was purchased from the Cell Bank of the Chinese Academy of Sciences. Envision Multi-Label Analyzer (PerkinElmer).
MV-4-11 cells were seeded in a white 96-well plate with 80 μL of cell suspension per well containing 10,000 MV-4-11 cells. The cell plate was cultured overnight in a carbon dioxide incubator.
The compounds to be tested were 5-fold serially diluted with a pipette to obtain eight concentrations, i.e., from 2 mmol/L to 26 nmol/L. The assay was carried out in duplicate. 78 μL of medium was added to the intermediate plate, and then 2 μL per well of the serially diluted compounds were transferred to the intermediate plate according to the corresponding position. After mixing, an amount of 20 μL per well was transferred to the cell plate. The cell plate was cultured in a carbon dioxide incubator for 3 days.
25 μL per well of Promega CellTiter-Glo reagent was added to the cell plate and incubated at room temperature for 10 minutes to stabilize the luminescence signal. A PerkinElmer Envision multi-label analyzer was used for reading.
The original data was converted into an inhibition rate, and the IC50 value can be obtained by four-parameter curve fitting.

[3] = In vivo pharmacokinetic assay in mice; parameters: species or system CD-1 male mice
Description: CD-1 male mice aged 7 to 10 weeks were selected. The doses for intravenous and oral administration were 1 mg/kg and 2.5 mg/kg, respectively. The mice were fasted for at least 12 hours before the administration, and resumed feeding 4 hours after the administration. The mice had free access to water throughout the assay period.
as §1, with “4,” for “4, 6,”, “30” for “200”, “saphenous” for “jugular”

[4] = biological target: T1, FLT3(R834Q) (Homo sapiens, UniProt P36888, R834Q); type: binding
T1 sequence (P36888 27-993 R834Q): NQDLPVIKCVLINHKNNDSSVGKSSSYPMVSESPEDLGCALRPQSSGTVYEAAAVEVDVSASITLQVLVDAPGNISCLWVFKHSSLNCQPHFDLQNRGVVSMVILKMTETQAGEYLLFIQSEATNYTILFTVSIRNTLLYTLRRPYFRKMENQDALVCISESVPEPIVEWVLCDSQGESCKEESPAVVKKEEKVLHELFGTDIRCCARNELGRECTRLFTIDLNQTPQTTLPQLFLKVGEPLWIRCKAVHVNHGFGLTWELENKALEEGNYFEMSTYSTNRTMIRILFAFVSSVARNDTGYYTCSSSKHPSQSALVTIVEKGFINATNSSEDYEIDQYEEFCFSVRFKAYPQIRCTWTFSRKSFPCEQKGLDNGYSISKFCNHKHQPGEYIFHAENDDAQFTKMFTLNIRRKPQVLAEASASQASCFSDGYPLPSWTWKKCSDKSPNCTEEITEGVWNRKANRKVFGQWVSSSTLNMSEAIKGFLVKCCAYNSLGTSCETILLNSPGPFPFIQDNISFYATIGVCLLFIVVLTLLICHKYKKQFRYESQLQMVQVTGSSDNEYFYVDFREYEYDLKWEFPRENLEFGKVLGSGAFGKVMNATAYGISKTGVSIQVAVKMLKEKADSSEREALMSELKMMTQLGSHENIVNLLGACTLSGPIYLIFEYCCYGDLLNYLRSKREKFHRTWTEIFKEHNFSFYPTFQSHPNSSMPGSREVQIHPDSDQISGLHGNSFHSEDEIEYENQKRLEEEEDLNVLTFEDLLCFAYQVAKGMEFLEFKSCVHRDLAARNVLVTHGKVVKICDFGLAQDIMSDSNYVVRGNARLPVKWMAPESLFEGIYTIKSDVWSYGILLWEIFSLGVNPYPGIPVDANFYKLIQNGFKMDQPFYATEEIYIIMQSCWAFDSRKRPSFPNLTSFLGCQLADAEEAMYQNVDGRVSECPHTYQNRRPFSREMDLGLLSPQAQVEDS

[5] = Oral administration (2.5 mg/kg)

**Q.** With CCc1nc(C(N)=O)c(Nc2ccc(N3CCC4(CCN(C)CC4)CC3)c(C)c2)nc1NC1CCOCC1.O=C(O)C(F)(F)F as the compound, how does the AUC0-last ([1]; Injection, 1 mg/kg) read?
**A.** 457 nm·h

**Q.** And the Cl ([1]; Injection, 1 mg/kg)?
**A.** 61.2 mL/min/kg

**Q.** What about the T1/2 ([1]; Injection, 1 mg/kg) of the same compound?
**A.** 2.99 h

**Q.** And the Vdss ([1]; Injection, 1 mg/kg)?
**A.** 13.3 L/kg

**Q.** What about the Cmax ([1]; Oral, 2.5 mg/kg) of the same compound?
**A.** 40.6 nM

**Q.** And the F% ([1]; Oral, 2.5 mg/kg)?
**A.** 44.7%

**Q.** What about the Tmax ([1]; Oral, 2.5 mg/kg) of the same compound?
**A.** 8.00 h

**Q.** What about the IC50 [2] of the same compound?
**A.** 3.02 nM

**Q.** And the AUC0-last ([3]; Injection (1 mg/kg))?
**A.** 604 nm·h

**Q.** And the Cl ([3]; Injection (1 mg/kg))?
**A.** 48.5 mL/min/kg

**Q.** What about the T1/2 ([3]; Injection (1 mg/kg)) of the same compound?
**A.** 2.40 h

**Q.** And the Vdss ([3]; Injection (1 mg/kg))?
**A.** 8.63 L/kg

**Q.** What about the Cmax [3, 5] of the same compound?
**A.** 60.5 nM

**Q.** And the F% [3, 5]?
**A.** 37.3%

**Q.** What about the T1/2 [3, 5] of the same compound?
**A.** 4.41 h

**Q.** What about the Tmax [3, 5] of the same compound?
**A.** 4.00 h

**Q.** What about the Kd [4] of the same compound?
**A.** 31 nM
